Experiments:
[1] = system: Avena sativa; test: herbicidal action, post-emergence method, in a greenhouse; format: in vivo, Avena sativa (oats); conditions: Avena sat., 3 kg/ha of active ingredient (footnote +), 0 = no damage, 100 = complete destruction
Method: (§1) A range of crop plants and of unwanted plants are treated in a greenhouse. The test plants, segregated according to species, are grown in plastic pots. When they have grown to from 2 to 15 cm, depending on the age and the habit of the species, emulsions of the end product I prepared in Example 10 are applied to the leaves by means of jets which produce a fine spray (post-emergence treatment). Water (300 liters per hectare) serves as the vehicle and dispersing medium. […] The results are rated on a scale of from 0 to 100, with O = no damage and 100 = complete destruction.

[2] = system: Glycine max; test: as above; format: in vivo, Glycine max (soy beans); conditions: Glyc. max, 0 = no damage, 100 = complete destruction
Method: as §1

[3] = system: Oryza sativa; test: as above; format: in vivo, Oryza sativa (rice); conditions: Oryz. sat., 0 = no damage, 100 = complete destruction
Method: (§2) A range of crop plants and of unwanted plants are treated in a greenhouse. The test plants, segregated according to species, are grown in plastic pots. […] Water (300 liters per hectare) serves as the vehicle and dispersing medium. […] The results are rated on a scale of from 0 to 100, with O = no damage and 100 = complete destruction.

[4] = system: Ammannia coccinea; test: as above; format: in vivo, Ammannia coccinea (redstem); conditions: Amm. cocc., 0 = no damage, 100 = complete destruction
Method: as §1

[5] = system: Amaranthus retroflexus; test: as above; format: in vivo, Amaranthus retroflexus (pigweed); conditions: Amar. retr., 0 = no damage, 100 = complete destruction
Method: as §2

[6] = system: Cyperus esculentus; test: as above; format: in vivo, Cyperus esculentus (yellow nutsedge); conditions: Cyp. esc., 0 = no damage, 100 = complete destruction
Method: as §2

[7] = system: Ipomoea spp.; test: as above; format: in vivo, Ipomoea spp. (morning glory); conditions: Ipom. spp., 0 = no damage, 100 = complete destruction
Method: as §2

[8] = system: Ludwigia spp.; test: as above; format: in vivo; conditions: Ludw. spp., 0 = no damage, 100 = complete destruction
Method: as §2

[9] = system: Sesbania exaltata; test: as above; format: in vivo, Sesbania exaltata (hemp sesbania (coffeeweed)); conditions: Sesb. exalt., 0 = no damage, 100 = complete destruction
Method: as §1

[10] = system: Sida spinosa; test: as above; format: in vivo, Sida spinosa (teaweed (pricly sida)); conditions: Sida spin., 0 = no damage, 100 = complete destruction
Method: as §2

[11] = system: Sinapis alba; test: as above; format: in vivo, Sinapis alba (white mustard); conditions: Sin. alba, 3 kg/ha of active ingredient (footnote +), 0 = no damage, 100 = complete destruction
Method: as §1

[12] = system: crop plants; test: herbicidal action, post-emergence treatment in a greenhouse, crop plants; format: in vivo; conditions: after one week
Method: as §1

[13] = system: unwanted plants; test: herbicidal action, post-emergence treatment in a greenhouse, unwanted plants; format: in vivo
Method: as §1

For CCN(COC)S(=O)(=O)N1c2ccccc2C(=O)N(C(C)C)S1(=O)=O [Example 10, 3-isopropyl-1-N'-methoxymethyl-N'-ethylsulfamoyl-2,1,3-benzothiadiazin-4-one-2,2-dioxide], the “% damage” value [1] was 0%, the “% damage” value ([2]; 2.0 kg/ha of active ingredient) was 5% and the “% damage” value ([2]; 4.0 kg/ha of active ingredient) was 15%. For the same compound, the “% damage” value ([3]; 2.0 kg/ha of active ingredient) was 0%, the “% damage” value ([3]; 4.0 kg/ha of active ingredient) was 0% and the “% damage” value ([4]; 2.0 kg/ha of active ingredient) was 50%. For the same compound, the “% damage” value ([4]; 4.0 kg/ha of active ingredient) was 60%, the “% damage” value ([5]; 2.0 kg/ha of active ingredient) was 60% and the “% damage” value ([5]; 4.0 kg/ha of active ingredient) was 60%. For the same compound, the “% damage” value ([6]; 2.0 kg/ha of active ingredient) was 60%, the “% damage” value ([6]; 4.0 kg/ha of active ingredient) was 70% and the “% damage” value ([7]; 2.0 kg/ha of active ingredient) was 50%. The “% damage” value ([7]; 4.0 kg/ha of active ingredient) was 90%, the “% damage” value ([8]; 2.0 kg/ha of active ingredient) was 50% and the “% damage” value ([8]; 4.0 kg/ha of active ingredient) was 75%. For the same compound, the “% damage” value ([9]; 2.0 kg/ha of active ingredient) was 50%, the “% damage” value ([9]; 4.0 kg/ha of active ingredient) was 60% and the “% damage” value ([10]; 2.0 kg/ha of active ingredient) was 95%. The “% damage” value ([10]; 4.0 kg/ha of active ingredient) was 95%, the “% damage” value [11] was 100% and the “damage to crop plants (in words)” value [12] was “very little or no attach”. The “onset of action (in words)” value [13] was “The action sets in rapidly” and the “damage to unwanted plants (in words)” value ([13]; after one week) was “dying”.

From patent publication US4131620A, “Sulfamic acid halides and their manufacture” (BASF Aktiengesellschaft, priority 1976, dated 1978)
